Entries after “also recorded” stand apart in the source; their conditions may differ.
Legend:
[1] = system: PTEN/AKT pathway; test: PTEN/AKT pathway expression in SNU-398 cells after treatment (Western blot, mRNA); format: cell-based, human; conditions: for PTEN protein expression / phosphorylated AKT (pAKT) level: SNU-398, Western blot
Description: The induction of Pten expression was not affected when wt peptide was administrated together with a Pten inhibitor. AKT, a molecule with levels of phosphorylation controlled by the expression of Pten was affected by the wt peptide addition accordingly. […] The effect of wt peptide on pAKT was abrogated by the Pten inhibitor. […] In contrast, the protein expression level of endogenous Pten was very high in the none-SALL4 expressing SNU387 cells.
Then tested was whether this peptide could reverse the repressive effect of SALL4 on its target genes. The focus was onPTEN, since it is implicated in SALL4-mediated leukemogenesis (Yang et al., Blood, 112:805-813 (2008); Lu et al., PLoS One, 4:e5577 (2009)). In addition, it was previously reported that SALL4 could specifically bind to the PTEN promoter region in a chromatin immunoprecipitation (ChIP) assay (Lu et al., PLoS One, 4:e5577 (2009)). When SALL4 was overexpressed in 293T cells, an enrichment of SALL4 as well as decreased H3 acetylation at this binding site was observed, which correlated with decreased PTEN RNA expression (Lu et al., PLoS One, 4:e5577 (2009))). Therefore, it was hypothesized that SALL4 could recruit the HDAC/NuRD complex to repress PTEN, and that the wild type peptide would compete with endogenous SALL4 in recruiting the HDAC/NuRD complex to the PTEN promoter, and release the repression effect of SALL4 on PTEN. Furthermore, this model would predict that wild type peptide treatment of SALL4-expressing cells would lead to increased epigenetic markers of gene activation, such as H3 acetylation, at the PTEN promoter binding site, as well as an increase in PTEN expression. To test this possibility, SNU-398 cells were treated with scrambled or wild type peptide and subsequently evaluated for PTEN expression and H3 acetylation at the SALL4 binding site at the PTEN promoter region. […] Therefore, the results herein are compatible with the model that SALL4 recruits HDACs to repress PTEN expression, and blocking the SALL4-HDAC interaction with the wild type peptide results in increased expression of PTEN.
To confirm the involvement of PTEN tumor suppressor in SALL4 peptide-induced reduction of number of viable HCC cells, PTEN expression was analyzed by western blot upon drug treatment. […] Whether the increase in PTEN expression upon SALL4 peptide treatment has an effect in PI3K signalling by dephosphorylating AKT was examined.
To confirm the involvement of the PTEN tumor suppressor in the SALL4 peptide-induced reduction of HCC cell viability, PTEN expression was analyzed by western blot upon drug treatment. […] If the increase in PTEN expression has an effect in PI3K signaling was next examined. PTEN functions as a phosphatase to dephosphorylate AKT.

[2] = system: PTEN/AKT pathway; test: PTEN/AKT pathway expression in THP1 cells (Western blot); format: cell-based
Description: To further evaluate the specificity of the SALL4/PTEN pathway, next investigated was whether wild type peptide treatment could affect the expression of PTEN and its downstream target, phosphorylated AKT (pAKT).

[3] = system: SNU-398 cells; test: Cell viability assay (MTT/MTS); format: cell-based, human; conditions: for cell viability / number of viable cells: SNU-398 (high SALL4), 72 h; for cell viability upon SALL4 knockdown: SNU-398, MTS
Experimental: Cell viability was determined 72 hours after peptide treatments. Absorbance at 490 nm is directly correlated to cell viability. Wild type functional SALL4 peptide (wt), mutant non-functional SALL4 peptide (Mut.), trichostatin A (TSA), scrambled control peptide (Scr.), wild type peptide+PTEN inhibitor SF1670 (wt+Inh.) were given to the cells at the indicated concentration. PTEN inhibitor concentration was 400 nM. (31C, 31D) Western blot analyses of the effects of peptides on PTEN, AKT, and pAKT expression on SNU-398 (31C) and SNU-387 (31D) cells 72 hours following peptide treatments. 20 μM of wt or Scr. peptide or 100 nM of TSA was used. PTEN inhibitor concentration was 400 nM. (31E) Representative images show NOD/SCID mice transplanted with Scr peptide- and wt peptide-treated SNU-398 cells (left) and the dissected subcutaneous tumors (right). Arrow indicates subcutaneous tumor. (31F) Growth curve of subcutaneous tumors (left panel) and tumor weight of tumors dissected at day 26 post-transplantation (right panel). Results are mean±s.d. n=5; * P<0.05. (31G) Representative images show NOD/SCID mice transplanted with 3 million SNU-398 cells at the left flank and treated intraperitoneally for five consecutive days with 56 mg/kg body weight TAT-Mut. peptide or 60 mg/kg body weight wt peptide (top panel) and the dissected subcutaneous tumors (bottom). (31H) Tumor weight of tumors dissected at day 18 post-transplantation and post-treatment of mice treated intraperitoneally with TAT fusion peptides as described in 5 g. Results are mean±s.d. n=5; * P<0.05.
Cell viability assay (MTT) (Invitrogen) was performed according to the manufacturer's instructions. Briefly—10000 cells were seeded in 100 ul medium in 96 well plates. The next day cells were treated as indicated on the figures. At the designated time after the treatment 20 ul of 5 mg/ml MTT solution was added to each well. After 3.5 h incubation at 37 C the medium was removed and the reaction was terminated with a solution of 4 mM HCl, 0.1% Nondet P-40 (NP40) all in isopropanol in dark on orbital shaker for […]. at room temperature. The absorbance was read at 590 nm with a reference filter of 620 nm in Spectromax M3 (ABI) spectrophotometer.
Multiple leukemic and solid tumor cancer cell lines with high or low/no SALL4 expression (FIG. 10A) were chosen to test the biological effect(s) of the wild type peptide. Wild type or scrambled peptide was delivered into tumor cells at various concentrations, and their effects on cells were evaluated 72 hours post-treatment by the MTS cell viability assay. […] The effect of wild type peptide is SALL4-specific, as it had no effect on KBM5, an AML cell line with undetectable endogenous SALL4 expression. We were surprised to see that the wild type peptide had no effect on a high SALL4-expressing endometrioid cancer cell line, AN3CA. This prompted checking whether PTEN, a gene repressed by SALL4 through its interaction with NuRD 27, was present in this cell line. According to the model herein, the function of wild type peptide requires both the expression of SALL4 and intact SALL4 downstream target genes, such as PTEN. In tumor cells with PTEN deletion, even though wild type peptide could compete with endogenous SALL4 in interacting with the HDAC complex, an anti-proliferative effect might not be observed. Therefore, expression of PTEN was evaluated in AN3CA cells along with other cell lines. While PTEN protein was present in all the other cell lines, it was absent in AN3CA cells (FIG. 10C), with reported deletion mutation of the gene in this cell line 40,41. […] Furthermore, the anti-proliferative effect also required certain downstream targets, such as PTEN.
7000 cells were seeded in each wells of a microtiter plate in 100 μL of complete medium. Cells from each treatment were seeded in duplicate. Controls using the same medium without cells were set up in parallel. […]

Molecule	PTEN protein expression [1]	phosphorylated AKT (pAKT) level [1]	PTEN protein expression ([1]; listed as Trichostatin A)	PTEN expression [2]	pAKT on Ser 473 [2]	cell viability / number of viable cells [3]	cell viability upon SALL4 knockdown [3]	cell viability upon SALL4 knockdown ([3]; listed as E5)	Pten mRNA expression ([1]; SNU-398)	elevation of PTEN expression level ([1]; SNU-398, 24 h, relative to alfa-tubulin)	PTEN protein expression ([1]; listed as SALL4 peptide)	phosphorylated AKT (pAKT) level ([1]; listed as SALL4 peptide)	PTEN protein expression ([1]; listed as SALL4 peptide (wt))	PTEN protein expression ([1]; listed as Wild type peptide)	PTEN protein expression ([1]; listed as wild type peptide)	phosphorylated AKT (pAKT) level ([1]; listed as wt)	cell viability / number of viable cells ([3]; listed as SALL4 peptide (wt))	cell viability / number of viable cells ([3]; listed as wild type peptide)	PTEN protein expression ([1]; listed as scrambled (mutant) peptide)	PTEN protein expression ([1]; listed as scrambled peptide)
CC(/C=C/C(=O)NO)=C\[C@@H](C)C(=O)c1ccc(N(C)C)cc1 [TSA, Trichostatin A, reference compound]	also induced PTEN expression; also recorded: also induced PTEN upregulation	significantly reduced	levels of PTEN were elevated	increased PTEN expression	significantly reduced	effectively induced reduction in the number of viable HCC cells	–	–	–	–	–	–	–	–	–	–	–	–	–	–
CTATTTAGCCAAAGGCAAA (short hairpin RNA, chemistry and delivery not given here, further chemistry not given here) [E5 shRNA]	–	–	–	–	–	–	number of viable cells decreased	decreased cell viability	–	–	–	–	–	–	–	–	–	–	–	–
H-MSRRKQAKPQHI-OH [wt peptide, MSRRKQAKPQHI]	noticeably higher	–	–	increased PTEN expression	significantly reduced	decreased cell viability; also recorded: reduced the amount of living cells in dose dependent manner	–	–	increased Pten mRNA expression level	More than 2 times	extensive increase in PTEN protein	significant reduction of pAKT level; also recorded: marked reduction of phospho AKT protein levels	extensive increased in PTEN expression	increased PTEN protein	increased PTEN expression	significantly reduced	the number of viable cells was reduced	decreased cell viability	–	–
Scr peptide: same 12 amino acids as the wt peptide, but in a scrambled sequence; negative control (SRMRQKIHPKIQ) [reference compound]	an effect not observed	No effect	–	No effect	No effect	remained unaffected	–	–	–	–	–	–	–	–	–	–	–	–	does not exhibit the same properties	not observed

From patent US9365851B2, “Spalt-like transcription factor 4 (SALL4) and uses thereof” (National University of Singapore, priority 2011, dated 2016)
